Measurements published in article PMC11073699, “Odorant receptors for floral- and plant-derived volatiles in the yellow fever mosquito, Aedes aegypti (Diptera: Culicidae)” (PLOS ONE, 2024).
Where “and” joins values, the source holds several entries; their conditions need not be identical. Identical values can stand only once.

How the values were obtained:
Assay type in all cases: cell-based
[1] = biological target: T1, AaegOR11 (Aedes aegypti, UniProt Q16PN4); assay: Two-electrode voltage clamp of Xenopus laevis oocytes expressing AaegOR11/Orco (blends, unitary compounds, concentration-response); conditions: for Normalized response, Average, unitary compounds of blend Terpenes 3: average over oocytes (9; fenchones 6); for Raw data (Responses in nA), unitary compounds of blend Terpenes 3: individual oocytes 1-9 (replicates); for Normalized response, unitary compounds of blend Terpenes 3: individual oocytes, normalized to cis-Decahydro-1-napthol = 100; for Raw Data (Responses in nA), concentration-response: oocytes 1-9; for Raw data (Responses in nA), unitary compounds, additional oocytes: six further oocytes in columns without head (fenchone comparison with cis-Decahydro-1-napthol)
T1 sequence (Q16PN4 1-420): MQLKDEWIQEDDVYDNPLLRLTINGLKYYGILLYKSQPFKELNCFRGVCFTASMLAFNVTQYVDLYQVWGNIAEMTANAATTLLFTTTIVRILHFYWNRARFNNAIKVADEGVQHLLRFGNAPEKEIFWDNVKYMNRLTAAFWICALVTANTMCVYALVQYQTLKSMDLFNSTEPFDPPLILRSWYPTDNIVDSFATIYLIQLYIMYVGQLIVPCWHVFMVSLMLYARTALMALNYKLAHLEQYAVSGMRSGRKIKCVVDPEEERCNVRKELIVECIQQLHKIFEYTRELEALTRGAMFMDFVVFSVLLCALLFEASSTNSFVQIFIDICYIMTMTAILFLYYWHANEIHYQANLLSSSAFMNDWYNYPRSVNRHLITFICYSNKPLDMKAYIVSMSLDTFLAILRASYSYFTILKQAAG
T1 sequence (Q178U6 1-478 partner): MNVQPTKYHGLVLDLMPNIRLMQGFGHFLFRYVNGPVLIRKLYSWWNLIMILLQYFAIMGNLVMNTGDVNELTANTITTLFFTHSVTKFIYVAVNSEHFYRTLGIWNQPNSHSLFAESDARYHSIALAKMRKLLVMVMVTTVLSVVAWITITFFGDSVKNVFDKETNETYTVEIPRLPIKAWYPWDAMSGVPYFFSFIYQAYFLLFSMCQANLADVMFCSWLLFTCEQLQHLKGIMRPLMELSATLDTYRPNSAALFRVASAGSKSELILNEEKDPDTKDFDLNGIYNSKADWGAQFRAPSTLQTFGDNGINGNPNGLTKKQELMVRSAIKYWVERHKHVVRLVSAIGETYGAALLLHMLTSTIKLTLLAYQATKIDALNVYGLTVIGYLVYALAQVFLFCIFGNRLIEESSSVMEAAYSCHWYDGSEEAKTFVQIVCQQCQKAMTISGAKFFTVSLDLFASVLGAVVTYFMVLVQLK
Source text: (§1) The coding regions of ten AaegOR genes of interest (S3 File) and AaegOrco were synthesized by Twist Bioscience (San Francisco, CA, USA) and cloned into the pENTR plasmid. The Gateway LR directional cloning system (Invitrogen Corp., Carlsbad, CA, USA) was utilized to subclone AaegOR coding regions into the pSP64t-RFA oocyte expression plasmid. Plasmids were purified using the GeneJet Plasmid Miniprep Kit (ThermoFisher Scientific, Waltham, MA, USA). Purified plasmids were sequenced in both directions to confirm coding regions.
(§2) Chemical compounds (S6 File) used in the deorphanization of AaegORs were purchased from Acros Organics (Morris, NJ, USA), Alfa Aesar (Ward Hill, MA, USA), and ThermoFisher Scientific (Waltham, MA, USA) at the highest purity available. Compounds were stored as 1M stocks in 100% DMSO. Serial dilutions of each compound were prepared in 10% DMSO and blended by chemical class.
(§3) pSP64t-RFA: AaegOR clones were linearized using Xbal, and cRNAs were synthesized using the mMESSAGE mMACHINE ® SP6 kit (Life Technologies, Carlsbad, CA, USA). Xenopus laevis stage V-VII oocytes purchased from Xenopus1 (Dexter, MI, USA) were stored at 18°C in Incubation medium (ND96 96 with 5% dialyzed horse serum, 50μg/mL gentamycin, 100μg/mL streptomycin, 100μg/mL penicillin, and 550μg/mL sodium pyruvate). 30nL of cRNA was injected into multiple oocytes using a microinjection syringe pump (World Precision Instruments, Sarasota, FL, USA) maintained at 18°C for 48–72 hrs. Odorant blends were perfused across individual oocytes for 10–15 seconds, held at a resting membrane potential of -80 mV using an OC-725C oocyte clamp (Warner Instruments, LLC, Hamden, CT, USA). Induced currents were measured indirectly using the two-electrode voltage clamp technique (TEVC). Following each stimulus, currents were allowed to return to baseline before further stimulation. Data was captured using the Digidata 1550 B digitizer and PClamp10 software (Molecular Devices, San Jose, CA, USA). Concentration-response curves were generated by perfusing unitary odorants over oocytes at increasing concentrations from [10^-3M] to [10^-9M]. Data were analyzed using GraphPad Prism 8 (GraphPad Software Inc., La Jolla, CA, USA). At least two biological replicates were conducted at each concentration and for each compound. Data for at least seven oocytes responding to each compound was analyzed (S7 File).

[2] = biological target: T2, AaegOR8 (Aedes aegypti, UniProt Q16MN0); assay: Two-electrode voltage clamp of Xenopus laevis oocytes expressing AaegOR8/Orco (blends, unitary compounds, concentration-response); conditions: for Raw data (Responses in nA) Oocyte 1 / Raw data (Responses in nA) Oocyte 2 / Raw data (Responses in nA) Oocyte 3 / Raw data (Responses in nA) Oocyte 4 / Raw data (Responses in nA) Oocyte 5 / Raw data (Responses in nA) Oocyte 6 / Raw data (Responses in nA) Oocyte 7 / Raw data (Responses in nA) Oocyte 8: Alcohols 2 unitary compounds
T2 sequence (Q16MN0 32-422): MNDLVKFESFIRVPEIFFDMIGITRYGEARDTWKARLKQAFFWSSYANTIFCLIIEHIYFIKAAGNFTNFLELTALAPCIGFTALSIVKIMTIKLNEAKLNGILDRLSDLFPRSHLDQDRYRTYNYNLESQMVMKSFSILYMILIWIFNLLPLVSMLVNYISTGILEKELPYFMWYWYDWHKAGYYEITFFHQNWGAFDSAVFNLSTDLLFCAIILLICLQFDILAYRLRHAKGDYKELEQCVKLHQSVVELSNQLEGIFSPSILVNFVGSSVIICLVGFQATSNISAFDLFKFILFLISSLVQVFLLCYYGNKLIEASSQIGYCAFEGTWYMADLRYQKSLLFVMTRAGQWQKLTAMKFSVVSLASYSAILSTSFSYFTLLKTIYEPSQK
T2 sequence (Q178U6 1-478 partner): T1 sequence (Q178U6 1-478 partner)
Source text: as §1, §2, §3

[3] = biological target: T3, AaegOR15 (Aedes aegypti, UniProt A0A6B9QIR2); assay: Two-electrode voltage clamp of Xenopus laevis oocytes expressing AaegOR15/Orco (blends, unitary compounds, concentration-response); conditions: for Raw data (Responses in nA), compounds of blend Alcohols 2: unitary compounds of Alcohols 2, individual oocytes 1-10 (replicates)
T3 sequence (A0A6B9QIR2 1-390): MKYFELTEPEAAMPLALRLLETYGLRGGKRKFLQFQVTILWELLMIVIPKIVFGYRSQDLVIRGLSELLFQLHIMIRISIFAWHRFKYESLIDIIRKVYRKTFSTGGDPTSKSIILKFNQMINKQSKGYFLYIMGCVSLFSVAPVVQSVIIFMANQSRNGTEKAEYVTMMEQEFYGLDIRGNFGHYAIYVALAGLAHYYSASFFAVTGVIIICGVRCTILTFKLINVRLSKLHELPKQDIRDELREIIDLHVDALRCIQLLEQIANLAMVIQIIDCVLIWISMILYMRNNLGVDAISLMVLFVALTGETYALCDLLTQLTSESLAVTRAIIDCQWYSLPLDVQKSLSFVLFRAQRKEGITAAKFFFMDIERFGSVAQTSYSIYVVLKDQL
T3 sequence (Q178U6 1-478 partner): T1 sequence (Q178U6 1-478 partner)
Source text: as §1, §2, §3

CCCCC/C=C\C=C\C(=O)OCC [Ethyl-2-trans-4-cis-decadienoate]
Normalized response, Average, unitary compounds of blend Terpenes 3 [1]: 0.0
Raw data (Responses in nA), unitary compounds of blend Terpenes 3 [1]: 0 nA
Normalized response, unitary compounds of blend Terpenes 3 [1]: 0.0

CC1(C)[C@H]2CC[C@]1(C)[C@H](O)C2 [(-)-Borneol]
Raw data (Responses in nA), unitary compounds of blend Terpenes 3 [1]: 0 nA

CCC/C=C/CO [trans-2-hexen-1-ol]
Raw data (Responses in nA) Oocyte 1 [2]: 0.0 nA
Raw data (Responses in nA) Oocyte 2 [2]: 0.0 nA
Raw data (Responses in nA) Oocyte 3 [2]: 0.0 nA
Raw data (Responses in nA) Oocyte 4 [2]: 0.0 nA
Raw data (Responses in nA) Oocyte 5 [2]: 0.0 nA
Raw data (Responses in nA) Oocyte 6 [2]: 0.0 nA
Raw data (Responses in nA) Oocyte 7 [2]: 0.0 nA
Raw data (Responses in nA) Oocyte 8 [2]: 0.0 nA
response of OR15 to unitary compounds ([3]; AaegOR15/Orco expressing oocytes, TEVC, individual compounds): additional responses
Raw data (Responses in nA), compounds of blend Alcohols 2 [3]: 30.0 nA (2×) and 40.0 nA and 310.0 nA and 480.0 nA (2×) and 375.0 nA and 270.0 nA and 440.0 nA and 135.0 nA

OC1CCCC2CCCCC12 (stereo not drawn) [cis-decahydro-1-napthol, cis-Decahydro-1-napthol]
Raw Data (Responses in nA), concentration-response ([1]; 1e-6 M): 10.0 nA
Raw Data (Responses in nA), concentration-response ([1]; 5e-6 M): 15.0 nA and 10.0 nA and 20.0 nA
Raw Data (Responses in nA), concentration-response ([1]; 1e-5 M): 15.0 nA and 10.0 nA
Raw Data (Responses in nA), concentration-response ([1]; 0.0005 M): 90.0 nA and 60.0 nA and 100.0 nA and 50.0 nA and 65.0 nA
Raw Data (Responses in nA), concentration-response ([1]; 0.001 M): 70.0 nA and 40.0 nA and 80.0 nA and 60.0 nA and 45.0 nA
EC50 ([1]; AaegOR11/Orco expressing oocytes, TEVC, concentration-response of normalized current): ~68.4 µM and 68.4 µM
magnitude of response of AaegOR11 to unitary compounds ([1]; AaegOR11/Orco expressing oocytes, TEVC, individual compounds): greater magnitude of response than (-)-fenchone or (+)-fenchone
Raw data (Responses in nA), unitary compounds of blend Terpenes 3 [1]: 70 nA and 100 nA and 30 nA (2×) and 40 nA (2×) and 85 nA and 150 nA and 110 nA
Raw data (Responses in nA), unitary compounds, additional oocytes [1]: 20 nA

C=C1CCC2(C(C)C)CC12 (centres unmarked) [Sabiene]
Normalized response, Average, unitary compounds of blend Terpenes 3 [1]: 0.556
Raw data (Responses in nA), unitary compounds of blend Terpenes 3 [1]: 0 nA (8×) and 5 nA
Normalized response, unitary compounds of blend Terpenes 3 [1]: 0.0 (8×) and 5.0

CC1(C)C(=O)[C@@]2(C)CCC1C2 (single isomer, unassigned; (+)) [(+) Fenchone]
Normalized response, Average, unitary compounds of blend Terpenes 3 [1]: 36.7
Normalized response, unitary compounds of blend Terpenes 3 [1]: 40.0 and 50.0 (2×) and 30.0 and 25.0 (2×)
Raw data (Responses in nA), unitary compounds, additional oocytes [1]: 10 nA

C=C1CC/C=C(\C)CC[C@@H]2[C@@H]1CC2(C)C [beta-caryophyllene]
Raw data (Responses in nA), unitary compounds of blend Terpenes 3 [1]: 10 nA (2×) and 0 nA (6×) and 20 nA

C=CC(O)CCCCC (centres unmarked) [1-octen-3-ol]
EC50 ([2]; AaegOR8/Orco expressing oocytes, TEVC, concentration-response of normalized current): 2.14 µM
Raw data (Responses in nA) Oocyte 1 [2]: 190.0 nA
Raw data (Responses in nA) Oocyte 2 [2]: 160.0 nA
Raw data (Responses in nA) Oocyte 3 [2]: 280.0 nA
Raw data (Responses in nA) Oocyte 4 [2]: 780.0 nA
Raw data (Responses in nA) Oocyte 5 [2]: 980.0 nA
Raw data (Responses in nA) Oocyte 6 [2]: 2200.0 nA
Raw data (Responses in nA) Oocyte 7 [2]: 2720.0 nA
Raw data (Responses in nA) Oocyte 8 [2]: 240.0 nA
Raw data (Responses in nA), compounds of blend Alcohols 2 [3]: 10.0 nA and 20.0 nA (2×) and 200.0 nA and 230.0 nA and 210.0 nA and 370.0 nA and 110.0 nA and 240.0 nA and 80.0 nA

COc1ccccc1 [anisole]
Raw data (Responses in nA) Oocyte 1 [2]: 0.0 nA
Raw data (Responses in nA) Oocyte 2 [2]: 0.0 nA
Raw data (Responses in nA) Oocyte 3 [2]: 0.0 nA
Raw data (Responses in nA) Oocyte 4 [2]: 0.0 nA
Raw data (Responses in nA) Oocyte 5 [2]: 0.0 nA
Raw data (Responses in nA) Oocyte 6 [2]: 10.0 nA
Raw data (Responses in nA) Oocyte 7 [2]: 5.0 nA
Raw data (Responses in nA) Oocyte 8 [2]: 0.0 nA
Raw data (Responses in nA), compounds of blend Alcohols 2 [3]: 10.0 nA and 20.0 nA (2×) and 220.0 nA and 280.0 nA and 290.0 nA and 310.0 nA and 170.0 nA and 260.0 nA and 100.0 nA

CC(=O)OCCC(C)C [Isomyl acetate]
Normalized response, Average, unitary compounds of blend Terpenes 3 [1]: 0.0
Raw data (Responses in nA), unitary compounds of blend Terpenes 3 [1]: 0 nA
Normalized response, unitary compounds of blend Terpenes 3 [1]: 0.0

CC(C)=CCC/C(C)=C\CO [Nerol]
Raw data (Responses in nA), unitary compounds of blend Terpenes 3 [1]: 0 nA

CC1(C)C(=O)[C@]2(C)CCC1C2 (single isomer, unassigned; (-)) [(-) Fenchone]
Normalized response, Average, unitary compounds of blend Terpenes 3 [1]: 23.3
Normalized response, unitary compounds of blend Terpenes 3 [1]: 20.0 and 25.0 (2×) and 10.0 (2×) and 50.0

CC12CCC(C1)C(C)(C)C2=O (centres unmarked) [fenchone]
Secondary Ligand ([1]; AaegOR11, secondary ligand identified during the functional characterizations): fenchone
